According to patent US20120079612A1, “Dry eye animal model” (West Virginia University, priority 2010, published 2012):

Key:
female rats [1] = experiment: Tear breakup time (TBUT), Fluress and slit lamp; format: in vivo, Sprague-Dawley rats
Description: (§1) Female rats of 9 months of age were ovariectomized and immediately supplemented with 1.5 mg of 17β-estradiol in three, separate 90-day time release pellets until 18 months. Three experimental groups were used with ovaries excised from rats in treatment […] (FIG. 1). Group 1 underwent a sham ovariectomy and was implanted with placebo pellet, Group 2 underwent an ovariectomy and was implanted with placebo pellet, and Group 3 underwent an ovariectomy and was implanted with E2 pellet. The three groups had tear breakup time and tear volume tested. […] The time lapse between the last blink and the first randomly distributed dry spot on the cornea using a portable slit lamp was recorded. The process was repeated 3 times for each subject and the results recorded (FIG. 2). […] Rats received 0.5 uL Fluress onto the eye, then the eye was manually blinked 3 times, and the modified Schirmer's strip was placed in the upper fornix for 5 minutes for assessment of tear volume and the volume was recorded (FIG. 3).
(§2) Female Sprague-Dawley rats, age 15 months, were subcutaneously implanted with placebo pellets and E2 rats received pellets containing 1.5 mg of 17β-estradiol in a 90-day time-release matrix. […] Serum E2 levels were measured from blood collected prior to randomization to treatment groups and again at time of euthanasia. […]

Serum E2 levels = format: in vivo, Sprague-Dawley rats; conditions: Example 2: rats at 18 months after 1.5 mg 90-day pellet implanted at 15 months; compared to Intact (placebo) rats
Description: Female Sprague-Dawley rats, age 15 months, were subcutaneously implanted with placebo pellets and E2 rats received pellets containing 1.5 mg of 17β-estradiol in a 90-day time-release matrix. Both groups received treatment until they reached 18 months of age. Serum E2 levels were measured from blood collected prior to randomization to treatment groups and again at time of euthanasia. […] Serum E2 levels of rats prior to randomization at 15 months of age (Pre) and two weeks before gland excision, at 18 months of age (Post). […] Also, Tear Volume Assessment and Tear Break-up Time both have been examined in the rats. […] TBUT was also altered by estrogen treatment with E2 rats having a significant reduction in time to first tear disruption compared to Intact rats (16.4±1.1 sec and 33.7±1.9 sec, respectively; p<0.001) (FIG. 5). Tear volume was measured in 18 month old female rats during 3 months of E2 or placebo supplementation. […] (B) Tear break up time was also measured in rats receiving placebo or E2 treatment using fluorescein sodium (0.25%).

female rats [2] = experiment: Tear volume, modified Schirmer's test; format: in vivo, Sprague-Dawley rats
Description: as §1, §2

women = conditions: compared to non-treated women of the same age, the estrogen-alone figure is for women with prior hysterectomy; cited from earlier work
[3] = Example 1: rats ovariectomized at 9 months, 1.5 mg 17β-estradiol 90-day pellets until 18 months, compared to control groups 1 and 2
[4] = Example 2: post-menopausal rats at 18 months, 3 months of E2 supplementation, p<0.001 vs Intact rats

| Compound | tear break up time (female rats [1]; [3]) | TBUT, time to first tear disruption (female rats [1]; [4]) [s] | serum E2 levels (Serum E2 levels) | tear volume (female rats [2]; [3]) | tear volume (female rats [2]; [4]) [mm] | increase of KCS (women) [%] |
| --- | --- | --- | --- | --- | --- | --- |
| C[C@]12CC[C@@H]3c4ccc(O)cc4CC[C@H]3[C@@H]1CC[C@@H]2O [E2, 17β-estradiol] | shorter tear break up time | 16.4 ± 1.1 | significantly elevated | reduced tear volume | 7.4±0.58 | – |
| estrogen | – | – | – | – | – | ~70 |
